Test results as given in patent US12472204B2, “Compound of element acid, which is in allotropic form, which enters into cellular interaction in some bone diseases” (CELAL BAYAR UNIVERSITESI DIGER MERKEZLER MUDURLUGU, priority 2020, dated 2025).

Key:
[1] = tested on: osteoblast cells where ageing model is formed by hydroxy-urea
Description: (§1) The 2nd group has been determined as the boric acid group by adding 0.1 mM boric acid into the osteoblast culture medium. The 3rd group is the ageing group and has been cultured with 1 mM hydroxy-urea to the osteoblast culture medium and has been determined as the experimental brittle bone disease group. The 4th group has been determined as the group where boric acid is applied to the osteogenesis imperfecta model by applying […] boric acid to the cells where ageing model has been formed. Boric acid has been applied to 2nd and 4th groups for 72 hours and group 1 and group 3 have been cultured in their own culture media at the same durations.

[2] = tested on: osteoblast cells where hydroxy-urea is applied (in-vitro brittle bone disease model)
Description: as §1

[3] = after applying boric acid, hydroxy-urea ageing model
[4] = 4th group: osteoblast + 1 mM hydroxy-urea + boric acid, 72 hours

## OB(O)O [boric acid, Boric acid]
[1]; [3]
  cellular morphology: improved
  immuno-reactivity of osteocalcin released by osteoblasts: increases
  immuno-reactivity of osteonectin released by osteoblasts: increases
[1]; concluded from Ki-67 immuno-reactivity
  proliferation in cells where ageing model is formed by hydroxy-urea: triggers proliferation
[1]; osteoblasts where boric acid is applied
  immuno-reactivity of Ki-67 (proliferation marker): greater
[2]; [4]
  cytoplasmic vacuoles: begin to occur
  epithelioid structure of osteoblast cells: preserve their epithelioid structures
  intercellular vacuoles: decrease
[2]; boric acid applied to the in-vitro model
  augmentation of osteoblasts and protection of these cells from ageing: favorable effects
